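Each compound was tested at five concentrations against cells in 96-well plates for 48 hours. TGI is the concentration that stops growth completely.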
What was measured:
Assay in all cases: NCI tumour cell line growth inhibition, 48 h
[1] = tested on: HOP-62 NSCLC
[2] = tested on: SF-268 CNS
[3] = tested on: OVCAR-5 ovarian
[4] = tested on: XF 498 CNS
[5] = tested on: SNB-75 CNS
[6] = tested on: MCF7 breast
[7] = tested on: ACHN renal
[8] = tested on: DU-145 prostate
[9] = tested on: HCT-116 colon
[10] = tested on: DMS 114 small cell lung
[11] = tested on: SK-MEL-5 melanoma
[12] = tested on: A549 NSCLC
[13] = tested on: EKVX NSCLC
[14] = tested on: DMS 273 small cell lung
[15] = tested on: K-562 leukemia
[16] = tested on: OVCAR-8 ovarian
[17] = tested on: KM12 colon
[18] = tested on: LOX IMVI melanoma
[19] = tested on: UO-31 renal
[20] = tested on: NCI-H226 lung
[21] = tested on: IGROV1 ovarian
[22] = tested on: NCI-H522 lung
[23] = tested on: MALME-3M melanoma
[24] = tested on: TK-10 renal
[25] = tested on: NCI-H23 lung
[26] = tested on: M19-MEL melanoma
[27] = tested on: COLO 205 colon
[28] = tested on: SK-OV-3 ovarian
[29] = tested on: BT-549 breast
[30] = tested on: SF-539 CNS
[31] = tested on: RPMI-8226 leukemia
[32] = tested on: CAKI-1 renal
[33] = tested on: OVCAR-3 ovarian
[34] = tested on: SK-MEL-2 melanoma
[35] = tested on: SK-MEL-28 melanoma
[36] = tested on: PC-3 prostate
[37] = tested on: A498 renal
[38] = tested on: SW-620 colon
[39] = tested on: CCRF-CEM leukemia
[40] = tested on: UACC-62 melanoma
[41] = tested on: SNB-78 CNS
[42] = tested on: HCT-15 colon
[43] = tested on: HL-60(TB) leukemia
[44] = tested on: T-47D breast
[45] = tested on: HS 578T breast
[46] = tested on: SF-295 CNS
[47] = tested on: M14 melanoma
[48] = tested on: SNB-19 CNS
[49] = tested on: MDA-MB-435
[50] = tested on: MOLT-4 leukemia
[51] = tested on: HT29 colon
[52] = tested on: SR leukemia
[53] = tested on: 786-0 renal
[54] = tested on: NCI/ADR-RES ovarian
[55] = tested on: RXF 393 renal
[56] = tested on: LXFL 529 NSCLC
[57] = tested on: DLD-1 colon
[58] = tested on: HCC-2998 colon
[59] = tested on: SN12C renal
[60] = tested on: KM20L2 colon
[61] = tested on: NCI-H460 lung
[62] = tested on: U251 CNS
[63] = tested on: OVCAR-4 ovarian
[64] = tested on: MDA-MB-231 breast
[65] = tested on: HOP-92 NSCLC
[66] = tested on: UACC-257 melanoma
[67] = tested on: MDA-N
[68] = tested on: HOP-18 NSCLC

Question: With COC1=CC(=O)c2c(O)c3c(c(O)c2C1=O)C=C(C)OC3O (stereo not given) as the compound, how does the TGI [1] read?
Answer: 7.04 µM

Question: And the TGI [2]?
Answer: 5.86 µM

Question: What about the TGI [3] of the same compound?
Answer: 5.73 µM

Question: And the TGI [4]?
Answer: 4.72 µM

Question: And the TGI [5]?
Answer: 3.97 µM

Question: What about the TGI [6] of the same compound?
Answer: 1.57 µM

Question: And the TGI [7]?
Answer: 6.89 µM

Question: What about the TGI [8] of the same compound?
Answer: 2.18 µM

Question: What about the TGI [9] of the same compound?
Answer: 2.3 µM

Question: And the TGI [10]?
Answer: 2.96 µM

Question: What about the TGI [11] of the same compound?
Answer: 0.66 µM

Question: What about the TGI [12] of the same compound?
Answer: 4.35 µM

Question: What about the TGI [13] of the same compound?
Answer: 20.2 µM

Question: What about the TGI [14] of the same compound?
Answer: 2.17 µM

Question: What about the TGI [15] of the same compound?
Answer: 5.07 µM

Question: What about the TGI [16] of the same compound?
Answer: 2.82 µM

Question: And the TGI [17]?
Answer: 12.2 µM

Question: What about the TGI [18] of the same compound?
Answer: 1.9 µM

Question: And the TGI [19]?
Answer: 13.3 µM

Question: What about the TGI [20] of the same compound?
Answer: 8.24 µM

Question: And the TGI [21]?
Answer: 5.57 µM

Question: And the TGI [22]?
Answer: 3.95 µM

Question: And the TGI [23]?
Answer: 0.877 µM

Question: What about the TGI [24] of the same compound?
Answer: 7.9 µM

Question: What about the TGI [25] of the same compound?
Answer: 2.25 µM

Question: And the TGI [26]?
Answer: 0.502 µM

Question: And the TGI [27]?
Answer: 0.746 µM

Question: What about the TGI [28] of the same compound?
Answer: 23.7 µM

Question: And the TGI [29]?
Answer: 3.5 µM

Question: And the TGI [30]?
Answer: 3.4 µM

Question: And the TGI [31]?
Answer: 5.83 µM

Question: And the TGI [32]?
Answer: 14.5 µM

Question: And the TGI [33]?
Answer: 6.33 µM

Question: What about the TGI [34] of the same compound?
Answer: 5.19 µM

Question: And the TGI [35]?
Answer: 3.65 µM

Question: And the TGI [36]?
Answer: 16.3 µM

Question: What about the TGI [37] of the same compound?
Answer: 4.91 µM

Question: And the TGI [38]?
Answer: 2.84 µM

Question: And the TGI [39]?
Answer: 16.1 µM

Question: What about the TGI [40] of the same compound?
Answer: 1.85 µM

Question: And the TGI [41]?
Answer: 4.14 µM

Question: And the TGI [42]?
Answer: 2.07 µM

Question: What about the TGI [43] of the same compound?
Answer: > 23 µM

Question: And the TGI [44]?
Answer: 7.05 µM

Question: What about the TGI [45] of the same compound?
Answer: 7.9 µM

Question: What about the TGI [46] of the same compound?
Answer: 5.06 µM

Question: And the TGI [47]?
Answer: 0.845 µM

Question: What about the TGI [48] of the same compound?
Answer: 7.12 µM

Question: And the TGI [49]?
Answer: 2.5 µM

Question: What about the TGI [50] of the same compound?
Answer: 5.04 µM

Question: And the TGI [51]?
Answer: 2.7 µM

Question: What about the TGI [52] of the same compound?
Answer: 5.46 µM

Question: And the TGI [53]?
Answer: 10.9 µM

Question: What about the TGI [54] of the same compound?
Answer: 3.76 µM

Question: What about the TGI [55] of the same compound?
Answer: 3.92 µM

Question: What about the TGI [56] of the same compound?
Answer: 2.7 µM

Question: What about the TGI [57] of the same compound?
Answer: 3.87 µM

Question: What about the TGI [58] of the same compound?
Answer: 3.74 µM

Question: And the TGI [59]?
Answer: 2.08 µM

Question: And the TGI [60]?
Answer: 10.4 µM

Question: And the TGI [61]?
Answer: 3.18 µM

Question: And the TGI [62]?
Answer: 7.72 µM

Question: And the TGI [63]?
Answer: 4.39 µM

Question: And the TGI [64]?
Answer: 5.09 µM

Question: What about the TGI [65] of the same compound?
Answer: 20.9 µM

Question: What about the TGI [66] of the same compound?
Answer: 0.754 µM

Question: And the TGI [67]?
Answer: 3.08 µM

Question: With c1ccc(C2OCCO2)c(OCCOc2cc(OCCOc3ccccc3C3OCCO3)c(OCCOc3ccccc3C3OCCO3)cc2OCCOc2ccccc2C2OCCO2)c1 as the compound, how does the TGI [1] read?
Answer: 28.6 µM

Question: And the TGI [2]?
Answer: 66.5 µM

Question: And the TGI [3]?
Answer: > 100 µM

Question: And the TGI [5]?
Answer: 7.06 µM

Question: What about the TGI [7] of the same compound?
Answer: > 100 µM

Question: And the TGI [9]?
Answer: 44.2 µM

Question: And the TGI [10]?
Answer: 29.9 µM

Question: What about the TGI [11] of the same compound?
Answer: > 100 µM

Question: And the TGI [12]?
Answer: > 100 µM

Question: And the TGI [14]?
Answer: 50.9 µM

Question: What about the TGI [15] of the same compound?
Answer: > 100 µM

Question: What about the TGI [16] of the same compound?
Answer: > 100 µM

Question: What about the TGI [17] of the same compound?
Answer: > 100 µM

Question: And the TGI [18]?
Answer: > 100 µM

Question: What about the TGI [19] of the same compound?
Answer: 53.2 µM

Question: And the TGI [20]?
Answer: 47.3 µM

Question: And the TGI [21]?
Answer: 28.6 µM

Question: And the TGI [23]?
Answer: > 100 µM

Question: And the TGI [24]?
Answer: 31.4 µM

Question: And the TGI [25]?
Answer: 27.3 µM

Question: And the TGI [26]?
Answer: > 100 µM

Question: And the TGI [27]?
Answer: > 100 µM

Question: And the TGI [28]?
Answer: 13.7 µM

Question: And the TGI [30]?
Answer: 32.7 µM

Question: What about the TGI [31] of the same compound?
Answer: > 100 µM

Question: And the TGI [32]?
Answer: > 100 µM

Question: What about the TGI [33] of the same compound?
Answer: 46.8 µM

Question: What about the TGI [34] of the same compound?
Answer: 47.9 µM

Question: What about the TGI [35] of the same compound?
Answer: > 100 µM

Question: What about the TGI [37] of the same compound?
Answer: 35.4 µM

Question: What about the TGI [38] of the same compound?
Answer: > 100 µM

Question: What about the TGI [39] of the same compound?
Answer: > 100 µM

Question: What about the TGI [40] of the same compound?
Answer: 37.6 µM

Question: And the TGI [68]?
Answer: > 100 µM

Question: And the TGI [41]?
Answer: 28 µM

Question: And the TGI [42]?
Answer: > 100 µM

Question: And the TGI [43]?
Answer: > 100 µM

Question: And the TGI [46]?
Answer: > 100 µM

Question: And the TGI [47]?
Answer: > 100 µM

Question: What about the TGI [50] of the same compound?
Answer: > 100 µM

Question: What about the TGI [51] of the same compound?
Answer: > 100 µM

Question: What about the TGI [52] of the same compound?
Answer: > 100 µM

Question: What about the TGI [53] of the same compound?
Answer: 17.3 µM

Question: What about the TGI [55] of the same compound?
Answer: 18.2 µM

Question: And the TGI [56]?
Answer: > 100 µM

Question: What about the TGI [57] of the same compound?
Answer: > 100 µM

Question: And the TGI [59]?
Answer: > 100 µM

Question: And the TGI [60]?
Answer: > 100 µM

Question: What about the TGI [61] of the same compound?
Answer: > 100 µM

Question: And the TGI [62]?
Answer: 23.9 µM

Question: And the TGI [63]?
Answer: 30.2 µM

Question: What about the TGI [65] of the same compound?
Answer: 21 µM

Question: What about the TGI [66] of the same compound?
Answer: > 100 µM

Reference: PubChem BioAssay (NCI)
